Measurements reported in patent publication US6258790A, “Antisense modulation of integrin α4 expression” (Isis Pharmaceuticals, Inc., priority 1999, dated 2001).

Experiments:
[1] = test system: Mouse collagen-induced arthritis (CIA); assay: Mouse collagen-induced arthritis (CIA) model for rheumatoid arthritis; assay type: in vivo, mouse (DBA/1LacJ)
Source text: A model for human rheumatoid arthritis has been developed wherein mice are immunized with bovine type II collagen. Anderson et al., J. Immunol. 1991 147, 1189-1193, citing Trentham et al., J. Exp. Med 1977, 146, 857. Swelling and inflammation of the joints follows in approximately 3 weeks, with joint distortion and ankylosis typical of rheumatoid arthritis. This model has been used to study the effects of the antisense oligonucleotide 17044, targeted to mouse integrin α4, on arthritis in mice.
DBA/1LacJ mice were obtained from Jackson Laboratory, Bar Harbor, Me. Female mice aged 6 to 8 weeks were used and assigned to groups, ten mice per group. On day 0 mice were immunized at the base of the tail with 100 ug of bovine type II collagen which was emulsified in Complete Freund's Adjuvant (CFA). On day 7, a second booster dose of collagen was administered by the same route. On day 14 the mice were injected subcutaneously with 100 ug of lipopolysaccharide (LPS). Weights were recorded weekly. Mice were inspected daily for the onset of CIA, which is characterized by erythema and edema. Upon the onset of the disease, paw widths and rear ankle widths of affected and unaffected joints were measured three times a week using a constant tension caliper. In addition, limbs were clinically evaluated and graded 0-4, where 0=normal; 1=one digit swollen; 2=inflammation present in more than one digit; 3=joint distortion with or without inflammation; and 4=ankylosis, detected by joint manipulation. The progression of all measurements was recorded to day 50. At the end of the observation period for each mouse, all paws were removed and examined histologically.
The oligonucleotide, the positive control drug (cyclophosphamide, 5 mg/kg), and the vehicle were administered daily to each mouse intraperitoneally (IP) starting on day -3 and continuing for the duration of the study. Each animal received 10 mg/kg as a bolus daily dose.
In a preliminary study, a single 10 mg/kg daily dose of […] was administered from the time of disease induction to the conclusion of the study 50 days later. Arthritis incidence was reduced from 70 to 30% in the ISIS 17044-treated group.

human integrin α4 = assay: Inhibition of human integrin α4 protein levels by antisense oligonucleotides (LIPOFECTIN, flow cytometry with CD49d-FITC) in A375 melanoma cells; assay type: cell-based
[2] = test system: leukocyte trafficking into the central nervous system of EAE mice; assay: Reduction of leukocyte trafficking into the central nervous system of EAE mice (immunostaining of sections); assay type: in vivo, mouse (CSJLF1)
Protocol: The pieces were embedded in O.C.T. tissue freezing medium (Ted Pella Inc., Redding, Calif.) on dry ice and methylbutane. Four-micron frozen sections were cut and air dried overnight. The sections were fixed for three minutes in ice-cold acetone and then placed on a Dako Autostainer (Dako Corporation, Carpinteria, Calif.) and treated in the following steps: 5 minutes in 0.03% H2 O2, 5 minutes in 5% donkey serum diluted in PBS, 45 minutes in appropriately diluted primary antibody, 30 minutes in horseradish peroxidase-labeled donkey anti-rat secondary antibody (Jackson Laboratory, Bar Harbor, Me.). Sections were rinsed between treatments with PBS. All the antibodies used were rat anti-mouse from PharMingen (San Diego, Calif.), except BM-8, which was from Bachem Bioscience Inc. (King of Prussia, Pa.). The immunostaining was developed with DAB (Dako Corporation) and counterstained with hematoxylin.

[3] = Table 23, mice with arthritis, 10 mg/kg

## 17044 (CCGCAGCCATGCGCTCTTGG; phosphorothioate, 2'-MOE/deoxy, further chemistry not given here) [compound 17044]
[1]; Table 22, 10 mg/kg daily IP
  # Paws/Mouse (mean number of affected paws at termination): 0.7 ± 0.4
  Mean Day of Onset: 20.3 ± 1.9 days
  Peak Day of Inflamm. (day from onset to time of maximum swelling): 1.6 ± 0.8 days
  Severity (total clinical score/total number of mice in group): 2.1 ± 1.1
[1]; [3]
  Mean # of Paws Involved: 2.3 ± 0.3
  Mean Clinical Score: 7.0 ± 1.0
[1]; preliminary study, single 10 mg/kg daily dose, reduced from 70
  Arthritis incidence: 30%
Human integrin α4; Table 4, 10 nM
  % Control: 86%
  % Inhib.: 14%
Human integrin α4; Table 4, 30 nM
  % Control: 73%
  % Inhib.: 27%
Human integrin α4; Table 4, 100 nM
  % Control: 60%
  % Inhib.: 40%
Human integrin α4; Table 4, 300 nM
  % Control: 58%
Human integrin α4; Table 4, 300 nM (highest dose)
  % Inhib.: 42%
Human integrin α4; Table 6, 10 nM
  % Control: 97%
Human integrin α4; Table 6, 30 nM
  % Control: 84%
  % Inhib.: 16%
Human integrin α4; Table 6, 100 nM
  % Control: 68%
  % Inhib.: 32%
Human integrin α4; Table 6, 300 nM
  % Control: 39%
Human integrin α4; Table 6, 300 nM (highest dose)
  % Inhib.: 61%
[2]; 1 mg/kg
  leukocyte trafficking into the spinal cords and brains: reduce leukocyte trafficking into the spinal cords and brains
[2]; EAE experiment 4
  reduction of leukocyte influx into the central nervous system, 1.0 vs 0.1 mg/kg: dose-dependent effect with 1.0 mg/kg of 17044 causing a greater reduction of leukocyte influx into the central nervous system than did 0.1 mg/kg 17044
[2]; one experiment, EAE mice
  CD4+T cells in the central nervous system: virtually eliminated
[2]; preliminary experiments, 1 mg/kg
  leukocyte trafficking as measured by expression of VLA-4, CD4, BM-8 and CD18: significantly reduced

## 107248 (antisense CTGAGTCTGTTTTCCATTCT; chemistry not given here) [compound 107248]
Human integrin α4; Table 24, A375 cells, lipofectin, as Example 8
  % Control: 34%
